Test results from US8999974B2, “Acyl piperazine derivatives as TTX-S blockers” (Raqualia Pharma Inc., priority 2010, dated 2015).

target: T1, human Nav1.7 (Homo sapiens, UniProt Q15858); experiment: FRET assay (EFS, FDSS) on CHO cells expressing human NaV1.7 channels; type: cell-based; details: FRET assay, CHO cells expressing human NaV1.7; read-out: IC50 against Nav1.7
T1 construct: expressed in transfected cells; host or cells: CHO
Protocol: (§1) This screen was used to determine the effects of compounds on human NaV1.3, human Nav1.7, and human Nav1.5 channels, utilising electrical field stimulation (EFS) system in 96-well plate format on FDSS (Hamamatsu Photonics) platform. The change of membrane potential was monitored with FRET dye pair, oxonol (DiSBAC2(3)) and coumarin (CC2-DMPE).
CHO cells expressing human NaV1.7 channels were grown in T225 flasks, in a 5% CO2 humidified incubator to about 80% confluence. Media composition consisted of HAM/F12 with Glutamax I, 10% FCS, 100 units/ml Penicillin and 100 microgram/ml Hygromycin.
(§2) Protocol: • Seeded each cell lines (1×10^5 cells/well) into poly-D-lysine coated 96-well plates prior to experimentation. • Incubated at 37° C. in 5% CO2 for 24 hours. • Washed each well with assay buffer (140 mM NaCl, 4.5 mM KCl, 10 mM D-Glucose, 2 mM CaCl2, 1 mM MgCl2, 10 mM HEPES, pH 7.4 adjusted with NaOH) twice. • Added 1st loading solution containing 10 microM CC2-DMPE and 0.06% Pluronic F-127 in assay buffer. • Incubated the plate at room temperature in dark for 1 hour. • Removed 1st loading solution and added 2nd loading solution containing 15 microM DiSBAC2(3), 0.555 mM VABSC-1 and 0.004% Pluronic F-127 in assay buffer. • Placed the plate under the dark at room temperature for 25 minutes. • Added compound solutions into the assay plate. • Set the assay plate in FDSS and placed an EFS device on the plate. • Measured EFS-induced fluorescent response by FDSS.
(§3) The data were analyzed and reported as normalized ratios of intensities measured at […]. The process of calculating these ratios was performed as follows:
(§4) [formula] This analysis was performed using a computerized specific program designed for FDSS generated data. Fluorescence ratio values were plotted using XLfit to determine an IC50 value for each compound.

T1 sequence (Q15858 whole entry): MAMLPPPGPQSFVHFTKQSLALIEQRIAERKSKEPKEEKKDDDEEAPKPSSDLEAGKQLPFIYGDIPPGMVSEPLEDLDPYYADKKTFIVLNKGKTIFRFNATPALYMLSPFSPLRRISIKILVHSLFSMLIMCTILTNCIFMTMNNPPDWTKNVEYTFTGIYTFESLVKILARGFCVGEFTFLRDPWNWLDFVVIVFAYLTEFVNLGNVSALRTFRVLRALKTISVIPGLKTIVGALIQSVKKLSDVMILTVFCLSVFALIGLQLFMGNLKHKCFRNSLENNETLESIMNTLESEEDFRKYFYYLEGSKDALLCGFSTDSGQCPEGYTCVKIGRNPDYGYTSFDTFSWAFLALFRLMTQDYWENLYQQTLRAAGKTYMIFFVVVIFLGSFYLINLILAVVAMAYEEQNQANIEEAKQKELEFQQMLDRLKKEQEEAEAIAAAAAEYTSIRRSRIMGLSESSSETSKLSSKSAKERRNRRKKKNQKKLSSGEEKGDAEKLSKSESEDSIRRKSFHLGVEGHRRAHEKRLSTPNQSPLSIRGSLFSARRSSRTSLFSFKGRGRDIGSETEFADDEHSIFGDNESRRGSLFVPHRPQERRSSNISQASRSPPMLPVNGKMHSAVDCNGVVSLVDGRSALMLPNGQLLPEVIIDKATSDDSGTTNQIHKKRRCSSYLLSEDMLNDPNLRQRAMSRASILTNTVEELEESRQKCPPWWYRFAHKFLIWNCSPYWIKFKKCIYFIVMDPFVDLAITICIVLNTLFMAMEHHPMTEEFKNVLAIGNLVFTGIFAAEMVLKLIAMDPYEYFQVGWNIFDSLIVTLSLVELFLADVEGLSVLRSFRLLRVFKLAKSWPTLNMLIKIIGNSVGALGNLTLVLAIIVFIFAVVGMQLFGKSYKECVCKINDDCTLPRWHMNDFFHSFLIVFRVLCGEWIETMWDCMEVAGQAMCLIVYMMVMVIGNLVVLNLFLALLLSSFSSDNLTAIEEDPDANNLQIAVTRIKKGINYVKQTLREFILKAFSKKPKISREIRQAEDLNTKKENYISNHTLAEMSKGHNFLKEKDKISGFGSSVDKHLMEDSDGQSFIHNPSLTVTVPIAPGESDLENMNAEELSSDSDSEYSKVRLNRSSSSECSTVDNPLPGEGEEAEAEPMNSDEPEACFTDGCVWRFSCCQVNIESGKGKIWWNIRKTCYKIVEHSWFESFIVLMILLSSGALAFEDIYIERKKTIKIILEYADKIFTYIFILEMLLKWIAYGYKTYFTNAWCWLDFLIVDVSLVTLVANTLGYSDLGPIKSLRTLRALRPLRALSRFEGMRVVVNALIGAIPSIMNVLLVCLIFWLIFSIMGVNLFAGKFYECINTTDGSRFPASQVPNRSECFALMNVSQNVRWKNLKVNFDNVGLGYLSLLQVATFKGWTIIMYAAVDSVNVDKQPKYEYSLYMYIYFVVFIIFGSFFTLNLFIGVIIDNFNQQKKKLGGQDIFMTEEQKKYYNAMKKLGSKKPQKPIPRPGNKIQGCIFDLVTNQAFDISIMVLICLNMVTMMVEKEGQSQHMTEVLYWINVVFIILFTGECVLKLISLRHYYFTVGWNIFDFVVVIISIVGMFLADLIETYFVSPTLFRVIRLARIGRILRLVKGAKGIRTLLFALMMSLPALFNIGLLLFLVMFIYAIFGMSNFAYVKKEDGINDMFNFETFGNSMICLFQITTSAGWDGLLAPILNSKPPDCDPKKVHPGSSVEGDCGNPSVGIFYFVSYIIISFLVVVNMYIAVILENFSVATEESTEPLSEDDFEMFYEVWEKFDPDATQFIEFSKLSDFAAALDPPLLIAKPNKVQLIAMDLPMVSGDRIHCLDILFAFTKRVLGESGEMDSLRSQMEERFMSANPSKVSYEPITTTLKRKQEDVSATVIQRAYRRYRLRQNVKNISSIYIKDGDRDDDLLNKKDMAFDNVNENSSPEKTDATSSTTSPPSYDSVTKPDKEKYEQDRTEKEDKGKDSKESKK

Compound | IC50 [µM]
CC(C)COc1cc(N2CCN(C(=O)CNC3CCCCC3)CC2)ncn1 [Example 100, 2-(cyclohexylamino)-1-(4-(6-isobutoxypyrimidin-4-yl)piperazin-1-yl)ethanone] | < 3
CC(C)COc1cc(N2CCN(C(=O)CNC(=O)c3cccc4[nH]ccc34)CC2)ncn1 [Example 75, N-(2-(4-(6-isobutoxypyrimidin-4-yl)piperazin-1-yl)-2-oxoethyl)-1H-indole-4-carboxamide] | < 3
Cc1onc(-c2ccccc2)c1C(=O)N1CCN(c2cc(OCC(F)(F)F)ncn2)CC1 [Example 245, (5-methyl-3-phenylisoxazol-4-yl)(4-(6-(2,2,2-trifluoroethoxy)pyrimidin-4-yl)piperazin-1-yl)methanone] | < 3
CC(C)COc1cc(N2CCN(C(=O)c3ccc(Cl)c(F)c3)CC2)ncn1 [Example 39, (4-chloro-3-fluorophenyl)(4-(6-isobutoxypyrimidin-4-yl)piperazin-1-yl)methanone] | < 3
O=C(c1ccc2cccc(O)c2n1)N1CCN(c2cc(OCC(F)(F)F)ncn2)CC1 [Example 65, (8-hydroxyquinolin-2-yl)(4-(6-(2,2,2-trifluoroethoxy)pyrimidin-4-yl)piperazin-1-yl)methanone] | < 3
CC(C)COc1cc(N2CCN(C(=O)CNC(=O)c3nn(C)c4ccccc34)CC2)ncn1 [Example 76, N-(2-(4-(6-isobutoxypyrimidin-4-yl)piperazin-1-yl)-2-oxoethyl)-1-methyl-1H-indazole-3-carboxamide] | < 3
CC(C)COc1cc(N2CCN(C(=O)COc3cccc4[nH]ccc34)CC2)ncn1 [Example 137, 2-((1H-indol-4-yl)oxy)-1-(4-(6-isobutoxypyrimidin-4-yl)piperazin-1-yl)ethanone] | < 3
O=C(Cc1c[nH]c2ccc(F)cc12)N1CCN(c2cc(OCC(F)(F)F)ncn2)CC1 [Example 110, 2-(5-fluoro-1H-indol-3-yl)-1-(4-(6-(2,2,2-trifluoroethoxy)pyrimidin-4-yl)piperazin-1-yl)ethanone] | < 3
O=C(COc1cccc2cccnc12)N1CCN(c2cc(OCC(F)(F)F)ncn2)CC1 [Example 156, 2-(quinolin-8-yloxy)-1-(4-(6-(2,2,2-trifluoroethoxy)pyrimidin-4-yl)piperazin-1-yl)ethanone] | < 3
CC(C)COc1cc(N2CCN(C(=O)c3ccc4cccc(O)c4n3)CC2)ncn1 [Example 32, (8-hydroxyquinolin-2-yl)(4-(6-isobutoxypyrimidin-4-yl)piperazin-1-yl)methanone] | < 3
CC(C)COc1cc(N2CCN(C(=O)COc3ccccc3C(F)(F)F)CC2)ncn1 [Example 143, 1-(4-(6-isobutoxypyrimidin-4-yl)piperazin-1-yl)-2-(2-(trifluoromethyl)phenoxy)ethanone] | < 3
CC(C)COc1cc(N2CCN(C(=O)[C@@H](NC(=O)OC(C)(C)C)c3ccccc3)CC2)ncn1 [Example 10, (S)-tert-butyl (2-(4-(6-isobutoxypyrimidin-4-yl)piperazin-1-yl)-2-oxo-1-phenylethyl)carbamate] | < 3
CC(C)COc1cc(N2CCN(C(=O)c3cc4ccccc4n3C)CC2)ncn1 [Example 43, (4-(6-isobutoxypyrimidin-4-yl)piperazin-1-yl)(1-methyl-1H-indol-2-yl)methanone] | < 3
O=C(c1cncn1-c1ccccc1C(F)(F)F)N1CCN(c2cc(OCC(F)(F)F)ncn2)CC1 [Example 243, (4-(6-(2,2,2-trifluoroethoxy)pyrimidin-4-yl)piperazin-1-yl)(1-(2-(trifluoromethyl)phenyl)-1H-imidazol-5-yl)methanone] | < 3
CC(C)COc1cc(N2CCN(C(=O)Cc3c[nH]c4ccc(F)cc34)CC2)ncn1 [Example 60, 2-(5-fluoro-1H-indol-3-yl)-1-(4-(6-isobutoxypyrimidin-4-yl)piperazin-1-yl)ethanone] | < 3
CC(C)COc1cc(N2CCN(C(=O)COc3ccc4ccccc4n3)CC2)ncn1 [Example 160, 1-(4-(6-isobutoxypyrimidin-4-yl)piperazin-1-yl)-2-(quinolin-2-yloxy)ethanone] | < 3
CC(C)COc1cc(N2CCN(C(=O)c3ccc(C(F)(F)F)cc3O)CC2)ncn1 [Example 42, (2-hydroxy-4-(trifluoromethyl)phenyl)(4-(6-isobutoxypyrimidin-4-yl)piperazin-1-yl)methanone] | < 3

target: T2, human NaV1.3 (Homo sapiens, UniProt Q9NY46); experiment: FRET assay (EFS, FDSS) on HEK293 cells expressing human NaV1.3 channels; type: cell-based; details: FRET assay, HEK293 cells expressing human NaV1.3; read-out: IC50 against Nav1.3
T2 construct: expressed in transfected cells; host or cells: HEK293
T2 sequence (Q9NY46 whole entry): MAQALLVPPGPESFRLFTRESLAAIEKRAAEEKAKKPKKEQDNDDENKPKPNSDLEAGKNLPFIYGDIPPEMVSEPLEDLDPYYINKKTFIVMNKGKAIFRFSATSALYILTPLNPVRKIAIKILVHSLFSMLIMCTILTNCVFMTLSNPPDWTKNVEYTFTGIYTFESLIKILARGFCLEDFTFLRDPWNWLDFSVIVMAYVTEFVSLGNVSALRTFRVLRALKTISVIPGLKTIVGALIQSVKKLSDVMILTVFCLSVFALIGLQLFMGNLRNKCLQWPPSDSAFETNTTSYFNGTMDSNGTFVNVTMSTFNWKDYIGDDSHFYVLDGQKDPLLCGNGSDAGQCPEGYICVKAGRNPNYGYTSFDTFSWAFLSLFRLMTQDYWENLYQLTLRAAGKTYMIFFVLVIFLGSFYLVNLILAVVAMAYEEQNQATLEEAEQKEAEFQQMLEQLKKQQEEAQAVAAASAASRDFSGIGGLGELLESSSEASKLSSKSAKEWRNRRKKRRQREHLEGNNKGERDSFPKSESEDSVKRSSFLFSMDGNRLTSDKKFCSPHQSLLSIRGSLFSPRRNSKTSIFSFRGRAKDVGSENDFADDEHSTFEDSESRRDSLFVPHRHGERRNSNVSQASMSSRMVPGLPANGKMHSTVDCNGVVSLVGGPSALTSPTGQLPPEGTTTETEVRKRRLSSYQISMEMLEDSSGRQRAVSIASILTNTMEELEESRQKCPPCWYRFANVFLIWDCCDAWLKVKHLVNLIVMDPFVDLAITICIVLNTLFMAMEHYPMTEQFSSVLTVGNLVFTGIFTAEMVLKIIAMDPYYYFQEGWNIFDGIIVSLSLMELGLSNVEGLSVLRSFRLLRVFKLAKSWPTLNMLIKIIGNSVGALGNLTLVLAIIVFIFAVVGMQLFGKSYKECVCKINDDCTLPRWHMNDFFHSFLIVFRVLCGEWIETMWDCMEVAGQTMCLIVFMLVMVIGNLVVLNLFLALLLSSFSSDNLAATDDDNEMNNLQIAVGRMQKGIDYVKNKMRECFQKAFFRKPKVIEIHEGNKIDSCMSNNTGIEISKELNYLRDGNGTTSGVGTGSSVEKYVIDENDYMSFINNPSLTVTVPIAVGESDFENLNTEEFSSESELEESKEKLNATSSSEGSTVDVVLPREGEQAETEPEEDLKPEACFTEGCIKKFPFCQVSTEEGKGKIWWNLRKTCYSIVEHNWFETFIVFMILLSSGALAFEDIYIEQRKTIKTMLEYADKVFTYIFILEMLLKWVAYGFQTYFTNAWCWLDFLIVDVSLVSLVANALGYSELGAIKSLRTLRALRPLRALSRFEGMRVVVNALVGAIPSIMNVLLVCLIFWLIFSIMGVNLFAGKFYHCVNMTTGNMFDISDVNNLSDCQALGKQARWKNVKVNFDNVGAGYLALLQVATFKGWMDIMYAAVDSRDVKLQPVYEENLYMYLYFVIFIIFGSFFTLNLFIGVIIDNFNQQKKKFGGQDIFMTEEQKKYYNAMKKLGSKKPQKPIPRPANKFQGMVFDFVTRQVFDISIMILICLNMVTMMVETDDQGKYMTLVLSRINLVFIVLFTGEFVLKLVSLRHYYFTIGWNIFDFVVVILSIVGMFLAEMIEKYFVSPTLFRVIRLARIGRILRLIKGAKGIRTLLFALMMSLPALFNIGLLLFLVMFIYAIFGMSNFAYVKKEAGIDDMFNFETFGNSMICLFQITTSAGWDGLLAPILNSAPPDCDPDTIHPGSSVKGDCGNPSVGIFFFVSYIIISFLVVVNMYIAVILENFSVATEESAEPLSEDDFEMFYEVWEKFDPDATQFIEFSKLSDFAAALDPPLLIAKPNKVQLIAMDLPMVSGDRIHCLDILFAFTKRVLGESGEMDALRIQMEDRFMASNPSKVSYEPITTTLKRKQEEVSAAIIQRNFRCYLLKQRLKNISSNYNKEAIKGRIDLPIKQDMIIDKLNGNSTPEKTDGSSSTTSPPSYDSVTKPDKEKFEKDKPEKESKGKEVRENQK
Protocol: as §1
Each HEK293 cells expressing human NaV1.3 channels and HEK293 cells expressing human NaV1.5 channels were grown in T225 flasks, in a 5% CO2 humidified incubator to about 80% confluence. Media composition consisted of Dulbecco's Modified Eagle Medium (high glucose), 10% FCS, 100 units/ml Penicillin, 100 microgram/ml Streptomycin and 500 microgram/ml Geneticine.
as §2, §3, §4

Compound | IC50 [µM]
CCOc1cc(N2CCN(C(=O)c3csc(-c4ccccn4)n3)CC2)ncn1 [Example 241, (4-(6-ethoxypyrimidin-4-yl)piperazin-1-yl)(2-(pyridin-2-yl)thiazol-4-yl)methanone] | < 3
CC(C)COc1cc(N2CCN(C(=O)CS(=O)(=O)c3ccc(Cl)cc3)CC2)ncn1 [Example 121, 2-((4-chlorophenyl)sulfonyl)-1-(4-(6-isobutoxypyrimidin-4-yl)piperazin-1-yl)ethanone] | < 3
CC(C)COc1cc(N2CCN(C(=O)COc3cccc(F)c3)CC2)ncn1 [Example 96, 2-(3-fluorophenoxy)-1-(4-(6-isobutoxypyrimidin-4-yl)piperazin-1-yl)ethanone] | < 3
Cc1c(C(=O)N2CCN(c3cc(OCC(C)C)ncn3)CC2)nnn1-c1ccc(F)cc1 [Example 202, (1-(4-fluorophenyl)-5-methyl-1H-1,2,3-triazol-4-yl)(4-(6-isobutoxypyrimidin-4-yl)piperazin-1-yl)methanone] | < 3
O=C(c1cnc2ccccc2n1)N1CCN(c2cc(OC3CCC3)ncn2)CC1 [Example 82, (4-(6-cyclobutoxypyrimidin-4-yl)piperazin-1-yl)(quinoxalin-2-yl)methanone] | < 3
CC(C)COc1cc(N2CCN(C(=O)c3nc4ccccc4n3C)CC2)ncn1 [Example 23, (4-(6-isobutoxypyrimidin-4-yl)piperazin-1-yl)(1-methyl-1H-benzo[d]imidazol-2-yl)methanone] | < 3
CC(C)COc1cc(N2CCN(C(=O)COc3ccc(F)c(F)c3)CC2)ncn1 [Example 97, 2-(3,4-difluorophenoxy)-1-(4-(6-isobutoxypyrimidin-4-yl)piperazin-1-yl)ethanone] | < 3
CC(C)COc1cc(N2CCN(C(=O)c3cc(C(F)(F)F)nn3C)CC2)ncn1 [Example 14, (4-(6-isobutoxypyrimidin-4-yl)piperazin-1-yl)(1-methyl-3-(trifluoromethyl)-1H-pyrazol-5-yl)methanone] | < 3
Cc1cc(C(=O)N2CCN(c3cc(OCC(C)C)ncn3)CC2)nn1-c1ccccc1 [Example 91] | < 3
Cc1c(C(=O)N2CCN(c3cc(OC4CCC4)ncn3)CC2)nnn1-c1ccccc1 [Example 219, (4-(6-cyclobutoxypyrimidin-4-yl)piperazin-1-yl)(5-methyl-1-phenyl-1H-1,2,3-triazol-4-yl)methanone] | < 3
CC(C)COc1cc(N2CCN(C(=O)C(NC(=O)OC(C)(C)C)c3ccccc3)CC2)ncn1 (stereo in doubt) [Example 11, (R)-tert-butyl (2-(4-(6-isobutoxypyrimidin-4-yl)piperazin-1-yl)-2-oxo-1-phenylethyl)carbamate] | < 3
CC(C)COc1cc(N2CCN(C(=O)c3csc(-c4cccnc4)n3)CC2)ncn1 [Example 190, (4-(6-isobutoxypyrimidin-4-yl)piperazin-1-yl)(2-(pyridin-3-yl)thiazol-4-yl)methanone] | < 3
